Read-outs that look alike come from different tables or passages of the source.
Columns and labels:
[1] = tested on: Key Broadleaf Weed and Crop Species; test: Post-emergent Test II herbicidal activity (Table 5); type: in vivo; conditions: post-emergence, 336 h, post-emergent, 14 days after application; for pest or weed control at 70 g/ha: application rate 70 g ai/ha; for pest or weed control at 140 g/ha: application rate 140 g ai/ha
How it was run: (§1)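 Greenhouse post-emergent assay: seedlings (first/second true leaf) in Metro-Mix 360 were sprayed at 187 L/ha at a top rate plus twofold dilutions down to 1/16×; solvent-blank controls were included. Percent visual injury was read at 14 d.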

[2] = tested on: Key Grass and Sedge Weeds as well as Grass Crops; test: Post-emergent Test II herbicidal activity (Table 6); type: in vivo; conditions: post-emergence, 336 h; for pest or weed control at 70 g/ha: application rate 70 g ai/ha; for pest or weed control at 140 g/ha: application rate 140 g ai/ha
How it was run: as §1

[3] = ABUTH: velvetleaf (Abutilon theophrasti), read-out: Visual Growth Reduction (%) 14 Days After Application, ABUTH
[4] = AMARE: redroot pigweed (Amaranthus retroflexus), read-out: Visual Growth Reduction (%) 14 Days After Application, AMARE
[5] = BRSNN: oilseed-rape, canola (Brassica napus), read-out: Visual Growth Reduction (%) 14 Days After Application, BRSNN
[6] = CHEAL: lambsquarters (Chenopodium album), read-out: Visual Growth Reduction (%) 14 Days After Application, CHEAL
[7] = EPHHL: wild poinsettia (Euphorbia heterophylla), read-out: Visual Growth Reduction (%) 14 Days After Application, EPHHL
[8] = HELAN: sunflower (Helianthus annuus), read-out: Visual Growth Reduction (%) 14 Days After Application, HELAN
[9] = VIOTR: wild pansy (Viola tricolor), read-out: Visual Growth Reduction (%) 14 Days After Application, VIOTR
[10] = CYPES: yellow nutsedge (Cyperus esculentus), read-out: Visual Growth Reduction (%) 14 Days After Application, CYPES
[11] = DIGSA: crabgrass (Digitaria sanguinalis), read-out: Visual Growth Reduction (%) 14 Days After Application, DIGSA
[12] = ECHCG: barnyardgrass (Echinochloa crus-galli), read-out: Visual Growth Reduction (%) 14 Days After Application, ECHCG
[13] = ORYSA: rice (Oryza sativa), read-out: Visual Growth Reduction (%) 14 Days After Application, ORYSA
[14] = SETFA: giant foxtail (Setaria faberi), read-out: Visual Growth Reduction (%) 14 Days After Application, SETFA
[15] = SORVU: grain sorghum (Sorghum vulgare), read-out: Visual Growth Reduction (%) 14 Days After Application, SORVU
[16] = TRZSS (wheat, Triticum aestivum), read-out: Visual Growth Reduction (%) 14 Days After Application, TRZSS
[17] = ZEAMX: maize, corn (Zea mays), read-out: Visual Growth Reduction (%) 14 Days After Application, ZEAMX

| SMILES | pest or weed control at 70 g/ha [1, 3] [%] | pest or weed control at 140 g/ha [1, 3] [%] | pest or weed control at 70 g/ha [1, 4] [%] | pest or weed control at 140 g/ha [1, 4] [%] | pest or weed control at 70 g/ha [1, 5] [%] | pest or weed control at 140 g/ha [1, 5] [%] | pest or weed control at 70 g/ha [1, 6] [%] | pest or weed control at 140 g/ha [1, 6] [%] | pest or weed control at 70 g/ha [1, 7] [%] | pest or weed control at 140 g/ha [1, 7] [%] | pest or weed control at 70 g/ha [1, 8] [%] | pest or weed control at 140 g/ha [1, 8] [%] | pest or weed control at 70 g/ha [1, 9] [%] | pest or weed control at 140 g/ha [1, 9] [%] | pest or weed control at 70 g/ha [2, 10] [%] | pest or weed control at 140 g/ha [2, 10] [%] | pest or weed control at 70 g/ha [2, 11] [%] | pest or weed control at 140 g/ha [2, 11] [%] | pest or weed control at 70 g/ha [2, 12] [%] | pest or weed control at 140 g/ha [2, 12] [%] | also measured |
| --- | --- | --- | --- | --- | --- | --- | --- | --- | --- | --- | --- | --- | --- | --- | --- | --- | --- | --- | --- | --- | --- |
| Cc1cc(F)c(-c2cc(N)c(Cl)c(C(=O)O)n2)cc1F [Compound 188] | 75 to 84 | 95 to 100 | 95 to 100 | 95 to 100 | 60 to 74 | 60 to 74 | 95 to 100 | 85 to 94 | 95 to 100 | 95 to 100 | 75 to 84 | 75 to 84 | 0 to 29 | 0 to 29 | 0 to 29 | 0 to 29 | 0 to 29 | 0 to 29 | 75 to 84 | 60 to 74 | pest or weed control at 70 g/ha [2, 13]: 0 to 29%; pest or weed control at 140 g/ha [2, 13]: 0 to 29%; pest or weed control at 70 g/ha [2, 14]: 0 to 29%; pest or weed control at 140 g/ha [2, 14]: 30 to 44%; pest or weed control at 70 g/ha [2, 15]: 45 to 59%; pest or weed control at 140 g/ha [2, 15]: 0 to 29%; pest or weed control at 70 g/ha [2, 16]: 0 to 29%; pest or weed control at 140 g/ha [2, 16]: 0 to 29%; pest or weed control at 70 g/ha [2, 17]: 0 to 29%; pest or weed control at 140 g/ha [2, 17]: 0 to 29%; melting point: 172.9 to 175 °C |
| Nc1c(F)c(-c2cc(F)c(C(F)F)cc2F)nc(C(=O)O)c1Cl [Compound 178] | 75 to 84 | 75 to 84 | 95 to 100 | 95 to 100 | 95 to 100 | 95 to 100 | 95 to 100 | 95 to 100 | 85 to 94 | 95 to 100 | 95 to 100 | 95 to 100 | 30 to 44 | 45 to 59 | 85 to 94 | 85 to 94 | 0 to 29 | 45 to 59 | 60 to 74 | 85 to 94 | pest or weed control at 70 g/ha [2, 13]: 0 to 29%; pest or weed control at 140 g/ha [2, 13]: 0 to 29%; pest or weed control at 70 g/ha [2, 14]: 85 to 94%; pest or weed control at 140 g/ha [2, 14]: 85 to 94%; pest or weed control at 70 g/ha [2, 15]: 45 to 59%; pest or weed control at 140 g/ha [2, 15]: 60 to 74%; pest or weed control at 70 g/ha [2, 16]: 30 to 44%; pest or weed control at 140 g/ha [2, 16]: 45 to 59%; pest or weed control at 70 g/ha [2, 17]: 0 to 29%; pest or weed control at 140 g/ha [2, 17]: 30 to 44%; melting point: 86.1 to 88.4 °C |
